From patent publication US9085555B2, “Complement pathway modulators and uses thereof” (priority 2011, dated 2015)
Structures can show the parent of a compound that is named as a salt.

Molecular target: Factor D (Homo sapiens (Human), UniProt P00746)
Assay: biochemical
Format: biochemical
Conditions: read-out: IC50

Sequence of Factor D (P00746 26-253): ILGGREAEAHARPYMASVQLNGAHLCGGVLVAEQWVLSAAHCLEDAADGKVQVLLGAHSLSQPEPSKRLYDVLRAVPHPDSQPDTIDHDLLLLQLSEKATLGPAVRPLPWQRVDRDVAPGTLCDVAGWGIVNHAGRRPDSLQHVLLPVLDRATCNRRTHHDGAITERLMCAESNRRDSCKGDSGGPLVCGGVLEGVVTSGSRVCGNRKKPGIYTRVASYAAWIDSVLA

SMILES	IC50
Cc1cc2c(C(N)=O)nn(CC(=O)N3[C@@H]4C[C@@H]4C[C@H]3C(=O)NCc3cccc(Cl)c3F)c2cn1 [Example 651, 1-{2-[(1R,3S,5R)-3-(3-Chloro-2-fluoro-benzylcarbamoyl)-2-aza-bicyclo[3.1.0]hex-2-yl]-2-oxo-ethyl}-5-methyl-1H-pyrazolo[3,4-c]pyridine-3-carboxylic acid amide]	21 nM
O=C(CO)c1nn(CC(=O)N2[C@@H]3C[C@@H]3C[C@H]2C(=O)NCc2cccc(Cl)c2F)c2ccccc12 [Example 652, (1R,3S,5R)-2-{2-[3-(2-Hydroxy-acetyl)-indazol-1-yl]-acetyl}-2-aza-bicyclo [3.1.0]hexane-3-carboxylic acid 3-chloro-2-fluoro-benzylamide]	19 nM
Cc1cc2c(cn1)c(C(N)=O)nn2CC(=O)N1[C@@H]2C[C@@H]2C[C@H]1C(=O)NCc1cccc(Cl)c1F [Example 653, 1-{2-[(1R,3S,5R)-3-(3-Chloro-2-fluoro-benzylcarbamoyl)-2-aza-bicyclo[3.1.0]hex-2-yl]-2-oxo-ethyl}-6-methyl-1H-pyrazolo[4,3-c]pyridine-3-carboxylic acid amide]	47 nM
NC(=O)c1nn(CC(=O)N2[C@@H]3C[C@@H]3C[C@H]2C(=O)NCc2cccc(Cl)c2F)c2ncccc12 [Example 654, 1-{2-[(1R,3S,5R)-3-(3-Chloro-2-fluoro-benzylcarbamoyl)-2-aza-bicyclo[3.1.0]hex-2-yl]-2-oxo-ethyl}-1H-pyrazolo[3,4-b]pyridine-3-carboxylic acid amide]	18 nM
CC(=O)c1cn(CC(=O)N2[C@@H]3C[C@@H]3C[C@H]2C(=O)NCc2cccc(Cl)c2F)c2nnccc12 [Example 655, (1R,3S,5R)-2-[2-(5-Acetyl-pyrrolo[2,3-c]pyridazin-7-yl)-acetyl]-2-aza-bicyclo [3.1.0]hexane-3-carboxylic acid 3-chloro-2-fluoro-benzylamide]	91 nM
NC(=O)c1nn(CC(=O)N2CCCC[C@H]2C(=O)NCc2cccc(Cl)c2F)c2cnccc12 [Example 656, 1-{2-[(S)-2-(3-Chloro-2-fluoro-benzylcarbamoyl)-piperidin-1-yl]-2-oxo-ethyl}-1H-pyrazolo[3,4-c]pyridine-3-carboxylic acid amide]	358 nM
NC(=O)c1nn(CC(=O)N2CCS[C@H]2C(=O)NCc2cccc(Cl)c2F)c2cnccc12 [Example 657, 1-{2-[(S)-2-(3-Chloro-2-fluoro-benzylcarbamoyl)-thiazolidin-3-yl]-2-oxo-ethyl}-1H-pyrazolo[3,4-c]pyridine-3-carboxylic acid amide]	78 nM
CO[C@H]1[C@@H](C(=O)NCc2cccc(Cl)c2F)N(C(=O)Cn2cc(C(C)=O)c3cc(C)ncc32)C[C@@H]1F [Example 658, (2S,3S,4S)-1-[2-(3-Acetyl-5-methyl-pyrrolo[2,3-c]pyridin-1-yl)-acetyl]-4-fluoro-3-methoxy-pyrrolidine-2-carboxylic acid 3-chloro-2-fluoro-benzylamide formate]	24 nM
CO[C@H]1[C@@H](C(=O)NC2(c3cccc(Cl)c3F)CC2)N(C(=O)Cn2nc(C(N)=O)c3cccnc32)C[C@@H]1F [Example 659, 1-(2-{(2S,3S,4S)-2-[1-(3-Chloro-2-fluoro-phenyl)-cyclopropylcarbamoyl]-4-fluoro-3-methoxy-pyrrolidin-1-yl}-2-oxo-ethyl)-1H-pyrazolo[3,4-b]pyridine-3-carboxylic acid amide]	25 nM
CO[C@H]1[C@@H](C(=O)NC2(c3cccc(Cl)c3F)CC2)N(C(=O)Cn2nc(C(N)=O)c3cnccc32)C[C@@H]1F [Example 660, 1-(2-{(2S,3S,4S)-2-[1-(3-Chloro-2-fluoro-phenyl)-cyclopropylcarbamoyl]-4-fluoro-3-methoxy-pyrrolidin-1-yl}-2-oxo-ethyl)-1H-pyrazolo[4,3-c]pyridine-3-carboxylic acid amide]	16 nM
